Entries after “also recorded” stand apart in the source; their conditions may differ.
What was measured:
[1] = target: T1, hM4DREADD in Tac2+ neurons (Homo sapiens, UniProt P08173, A203G/Y113C); assay: Looming disk assay, CNO silencing of Tac2+ neurons (hM4DREADD); type: in vivo, mouse; details: SIS Tac2-Cre mice, CNO 5 mg/kg i.p.
T1 construct: host or cells: Tac2+ neurons of Tac2-Cre mice (dBNSTa, DMH or CeA), transduced in vivo with AAV2-EF1a-DIO-hM4D-mCherry
T1 sequence (P08173 1-479 Y113C/A203G): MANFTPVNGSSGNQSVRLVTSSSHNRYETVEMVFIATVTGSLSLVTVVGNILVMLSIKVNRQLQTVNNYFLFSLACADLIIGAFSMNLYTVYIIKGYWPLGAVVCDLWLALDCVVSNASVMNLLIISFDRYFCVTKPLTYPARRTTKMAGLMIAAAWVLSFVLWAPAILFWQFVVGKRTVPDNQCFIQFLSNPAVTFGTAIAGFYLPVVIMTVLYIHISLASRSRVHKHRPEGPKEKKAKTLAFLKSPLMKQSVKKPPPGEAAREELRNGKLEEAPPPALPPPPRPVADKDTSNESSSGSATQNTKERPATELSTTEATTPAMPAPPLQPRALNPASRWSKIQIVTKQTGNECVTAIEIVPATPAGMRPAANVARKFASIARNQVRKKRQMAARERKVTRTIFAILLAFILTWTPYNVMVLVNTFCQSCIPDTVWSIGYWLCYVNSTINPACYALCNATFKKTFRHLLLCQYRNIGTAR
Experimental: Freezing behavior to presentation of an overhead looming disk proceeded as previously described (Kunwar et al., 2015; Yilmaz and Meister, 2013; incorporated by reference in their entirety). Briefly, mice were transported to a novel behavioral testing room. After 5 minutes of acclimation, mice were placed inside a novel, custom-built open top Plexiglas arena (48×48×30 cm) covered with a flat screen monitor placed directly above and with illumination provided by infrared LEDs (Marubeni). Mice were given a 5 minute baseline period in the arena, after which entry into the center of the arena triggered presentation of a single, 10 second overhead looming disk stimulus (comprised of a single looming disk presentation 0.5 seconds in duration, which was repeated 10 times with an inter-stimulus interval of 0.5 seconds). The stimulus was controlled by custom MATLAB code (M. Meister, Caltech) run on a dedicated computer in an adjacent room. Mice remained in the area for an additional 2 minutes before being transported back. Behavior was recorded using a video recorder attached to a laptop equipped with video capture software (Corel VideoStudio Pro). Acute freezing behavior to the looming disk (“during”) as well as in the 30 seconds following the last disk (“post”) were scored manually (Behavior Annotator, MATLAB) by an observer blind to environmental conditions. […]

[2] = target: T2, Nk3R (Mus musculus, UniProt P47937); assay: Tone fear conditioning test (freezing to conditioned tone), osanetant; type: in vivo; parameters: from tissue; host or cells: Living mice (wild-type C57Bl6/N males, Charles River); details: osanetant daily during two-week isolation, tested off-drug
T2 sequence (P47937 1-452): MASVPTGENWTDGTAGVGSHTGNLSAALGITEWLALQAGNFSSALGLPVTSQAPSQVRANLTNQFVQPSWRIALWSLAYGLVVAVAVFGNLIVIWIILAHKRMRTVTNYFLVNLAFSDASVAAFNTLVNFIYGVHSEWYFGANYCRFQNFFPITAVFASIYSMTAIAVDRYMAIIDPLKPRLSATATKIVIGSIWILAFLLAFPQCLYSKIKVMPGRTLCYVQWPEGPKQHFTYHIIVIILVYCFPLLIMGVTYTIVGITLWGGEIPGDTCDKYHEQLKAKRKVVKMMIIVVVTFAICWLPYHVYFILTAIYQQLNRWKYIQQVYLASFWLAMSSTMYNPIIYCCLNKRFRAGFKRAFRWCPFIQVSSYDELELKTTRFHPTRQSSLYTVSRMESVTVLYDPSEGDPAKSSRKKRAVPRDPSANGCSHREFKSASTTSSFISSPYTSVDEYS

[3] = target: T2, Nk3R; assay: Social interaction assay, osanetant; type: in vivo; parameters: from tissue; host or cells: Living mice (wild-type C57Bl6/N males, Charles River); details: SIS mice; acute systemic osanetant; listed as Osanetant
Experimental: Mice were administered the Nk3R antagonist osanetant (Axon Medchem, Axon 1533) either systemically or intra-brain region. Osanctant was dissolved in saline with 0.1% Tween 20 (vehicle). For systemic administration mice received an intraperitoneal (i.p.) injection (5 mg/kg) 20 minutes prior to behavioral testing. For microinfusions, guide cannulas were removed from mice and replaced with injector cannulas (Plastics One), which protruded 0.5 mm from the tip of the guide cannula. Injectors were attached to 5 μl Hamilton syringes with PE tubing (Plastics One) and mounted on a microinfusion pump (Harvard Apparatus) for controlled infusion of osanetant (0.3 μl vehicle with 375 ng dose per site injected over 6 minutes). For experiments using systemic administration of clozapine-N-oxide (CNO), CNO (Enzo Life Sciences-Biomol, BML-NS105-0005) was dissolved in saline (9 g/L NaCl) and injected (i.p.) at 5 mg/kg for hM4DREADD silencing or 2 mg/kg for hM3DREADD activation 20 minutes prior to behavioral testing. CNO was also administered chronically in drinking water (0.5 mg CNO/100 ml water).

Row | persistent freezing to fear conditioned tone [2] | SIS-induced decreased social interaction (time in social zone) [3] | SMILES | acute (during) freezing to looming disk ([1]; hM4DREADD in CeA) | persistent (post) freezing to looming disk ([1]; hM4DREADD in dBNSTa)
1 | – | – | C[N+]1([O-])CCN(C2=Nc3cc(Cl)ccc3Nc3ccccc32)CC1 [CNO, clozapine-N-oxide] | blocked; also recorded: suppressed | blocked; also recorded: selectively attenuated
2 | prevented | blocked; also recorded: attenuated | CC(=O)N(C)C1(c2ccccc2)CCN(CCC[C@]2(c3ccc(Cl)c(Cl)c3)CCCN(C(=O)c3ccccc3)C2)CC1 [osanetant, N-(1-{3-[(3R)-1-benzoyl-3-(3,4-dichlorophenyl)piperidin-3-yl]propyl}-4-phenylpiperidin-4-yl)-N-methylacetamide] | – | –

Source: patent US12083109B2, “Neurokinin antagonists and uses thereof” (California Institute of Technology, priority 2017, dated 2024)
